# “Also recorded” adds a separate entry of the source.
# What was measured:
# Format in all cases: cell-based, mouse
# [1] = tested on: Bcl-2 expressing beclin1^+/+ and beclin1^+/− iBMK cells; assay: Survival during metabolic stress and recovery without and with ROS scavenger (time-lapse images, adherent cells); details: NAC 1 mM, 5 days of metabolic stress
# Description: (§1) FIG. 5 illustrates effects of metabolic stress in promoting elevated ROS production and chromosomal instability in autophagy-deficient cells. (A) Autophagy-deficiency leads to elevated ROS production. Overlays show ROS levels in Bcl-2 expressing beclin1^+/+ (Green) and beclin1^+/− iBMK cells (Blue) (x-axis, log scale) under normal growth (0 Di) and at 0.5, 1, 2.5 and 24 hr (beclin1^+/+, green arrows and beclin1^+/−, red arrows) during recovery (0.5-24 hR) from 5 days of metabolic stress (5 Di) by flow-cytometry using the ROS sensor DCF-DA. The ROS levels in untreated cells are shown in dotted lines for comparison. (B) Representative histogram from three independent experiments measuring the mean ROS levels in Bcl-2 expressing beclin1^+/+ and beclin1^+/− iBMK cells shown in (A). […] Representative time-lapse images of Bcl-2 expressing beclin1^+/+ and beclin1^+/− iBMK cells during recovery following 5 days of metabolic stress in presence (NAC) and absence (UT) of the ROS scavenger NAC (1 mM) (relative percentage of adherent cells compared to time 0 is shown). […] Western blot analysis of p62 levels in Bcl-2 expressing beclin1^+/+, beclin1^+/−, atg5^+/+ and atg5^−/− iBMK cell lines following 0 or 7 days of metabolic stress followed by 1 day recovery without and with NAC. […] Numbers represent passage numbers at which ploidy was determined. […]
# p62 = assay: Western blot analysis of p62 levels after metabolic stress without and with NAC
# Description: as §1
# [2] = tested on: diploid beclin1^+/+ and beclin1^+/− iBMK cells; assay: Flow-cytometry analysis of DNA content (progression to aneuploidy) over passages without and with NAC; details: NAC 1 mM
# Description: FIG. 5 illustrates effects of metabolic stress in promoting elevated ROS production and chromosomal instability in autophagy-deficient cells. (A) Autophagy-deficiency leads to elevated ROS production. Overlays show ROS levels in Bcl-2 expressing beclin1^+/+ (Green) and beclin1^+/− iBMK cells (Blue) (x-axis, log scale) under normal growth (0 Di) and at 0.5, 1, 2.5 and 24 hr (beclin1^+/+, green arrows and beclin1^+/−, red arrows) during recovery (0.5-24 hR) from 5 days of metabolic stress (5 Di) by flow-cytometry using the ROS sensor DCF-DA. The ROS levels in untreated cells are shown in dotted lines for comparison. […] Numbers represent passage numbers at which ploidy was determined.
# To determine if the elevated ROS and oxidative stress in autophagy-deficient cells contributes to cellular damage, the stress response without and with the ROS scavenger, N-acetyl cysteine (NAC) was examined. […] To examine the role of increased ROS levels and oxidative stress on genomic instability, the DNA content of early passage diploid beclin1^+/+, and autophagy-deficient beclin1^+/− iBMK cells without and with NAC by flow-cytometry were monitored. beclin1^+/+ iBMK cells maintained diploidy after 40 passages and the presence of NAC had no effect. […]
# [3] = tested on: Bcl-2 expressing beclin1^+/+ and beclin1^+/− iBMK cells; assay: MTT assays of sensitivity to ER stress and proteasome inhibition; details: MTT assay; increasing concentrations; tunicamycin 3 days, epoxomycin 2 days; normal growth conditions
# Description: FIG. 3 illustrates the effects of autophagy defects in altering the stress response and sensitize cells to ER stress and proteasome inhibition. (A) Western blots showing levels of p62, ER chaperones, PDI and ubiquitin in Bcl-2 expressing beclin1^+/+, beclin1^+/−, atg5^+/+ and atg5^−/− iBMK cells following 5 or 7 days of metabolic stress, and 1 and 2 days of recovery. (B-D) Allelic loss of beclin1 sensitizes cells selectively to ER stress and proteasome inhibition. MTT assays showing sensitivity of Bcl-2 expressing beclin1^+/+ (Blue) and beclin1^+/− (Red) iBMK cells in response to increasing concentrations of (B) tunicamycin for 3 days, or (C) epoxomycin for 2 days, and (D) following 5 days of metabolic stress. Data are presented as mean±SD. (E) Autophagy deficiency causes mitochondrial damage. […]
# Since autophagy defects indicated an elevated demand for protein folding, the sensitivity of beclin1 cells to pharmacological induction of ER stress was investigated. […] Degradation of unfolded proteins via the proteasome pathway and ameliorates ER stress and to investigate if autophagy deficiency also elevated the burden on the ubiquitin-proteasome system, the sensitivity to the proteasome inhibitor epoxomycin was assessed. […]
Compound,protective effect in beclin1^+/− cells relative to wild-type [1],survival during metabolic stress ([1]; beclin1^+/+ and beclin1^+/− cells),"p62 accumulation during metabolic stress (p62; NAC 1 mM, beclin1^+/− iBMK cells)","p62 accumulation in autophagy-deficient cells (p62; beclin1^+/− and atg5^−/− cells, 7 days of metabolic stress followed by 1 day recovery, with NAC)","effect on maintenance of diploidy ([2]; beclin1^+/+ iBMK cells, 40 passages)","progression to aneuploidy ([2]; beclin1^+/− cells, passages 18 and 39)",sensitivity of beclin1^+/− cells compared to wild-type cells [3]
"CC(=O)N[C@@H](CS)C(=O)O [NAC, N-acetyl cysteine]",more profound,partially rescues the susceptibility to metabolic stress and recovery; also recorded: improved survival,decreased p62 accumulation,suppresses p62 accumulation,had no effect,limits progression to aneuploidy; also recorded: delayed this progression,
Tunicamycin,,,,,,,increased sensitivity

# From patent US8187802B2, “Cell lines useful for assessing modulation of autophagy” (Rutgers, The State University of New Jersey, priority 2008, dated 2012)
